Some results are limits rather than exact numbers.

The assay concerns the target T1, glucocorticoid receptor (Homo sapiens, UniProt P04150).
T1 construct: a partially purified full length glucocorticoid receptor
T1 sequence (P04150 1-777): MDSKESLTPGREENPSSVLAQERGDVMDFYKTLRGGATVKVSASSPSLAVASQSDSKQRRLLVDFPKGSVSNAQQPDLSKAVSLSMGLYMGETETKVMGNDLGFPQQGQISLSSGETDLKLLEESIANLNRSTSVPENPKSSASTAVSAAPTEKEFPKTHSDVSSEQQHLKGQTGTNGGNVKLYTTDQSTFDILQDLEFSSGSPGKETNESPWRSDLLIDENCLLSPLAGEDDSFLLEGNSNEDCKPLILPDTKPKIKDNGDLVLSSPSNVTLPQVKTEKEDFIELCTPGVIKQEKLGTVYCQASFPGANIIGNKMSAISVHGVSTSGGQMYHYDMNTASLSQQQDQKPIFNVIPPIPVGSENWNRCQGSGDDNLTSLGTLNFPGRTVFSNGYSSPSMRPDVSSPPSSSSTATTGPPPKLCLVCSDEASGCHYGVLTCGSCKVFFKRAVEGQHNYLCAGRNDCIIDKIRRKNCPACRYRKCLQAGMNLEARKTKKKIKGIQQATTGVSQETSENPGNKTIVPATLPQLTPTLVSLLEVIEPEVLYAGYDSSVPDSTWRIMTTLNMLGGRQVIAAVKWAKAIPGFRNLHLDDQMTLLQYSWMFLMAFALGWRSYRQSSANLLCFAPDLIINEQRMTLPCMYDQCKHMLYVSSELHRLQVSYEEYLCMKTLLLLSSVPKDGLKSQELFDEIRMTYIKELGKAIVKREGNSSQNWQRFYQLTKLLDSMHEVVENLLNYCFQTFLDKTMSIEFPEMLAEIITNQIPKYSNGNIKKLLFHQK
Put plainly: Glucocorticoid receptor binding assay (fluorescence polarisation). To be noted: competition with Alexa 555 fluorescently-labelled dexamethasone derivative, full length glucocorticoid receptor; read-out: glucocorticoid binding pIC50 (converted). The method in brief: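 Compounds in DMSO incubated with fluorescent dexamethasone and partially purified full-length GR plus stabilising buffer components, 2 hrs at room temperature in the dark. Displacement read as decrease in fluorescence polarisation; pIC50 estimated from dose-response curves.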
A general note: In fluorescence polarisation assays a small probe gives low polarisation when free and higher when bound to something large.
Consider `CN(CC(O)(CNC(=O)c1cnn(-c2ccc(F)cc2)c1N)C(F)(F)F)C(=O)c1c(Cl)cccc1Cl` (racemic) [Example 1 (racemic), 5-Amino-N-(2-{[[(2,6-dichlorophenyl)carbonyl](methyl)amino]methyl}-3,3,3-trifluoro-2-hydroxypropyl)-1-(4-fluorophenyl)-1H-pyrazole-4-carboxamide], for which the IC50 was ≤ 316 nM. Consider `CCN(CC(O)(CNC(=O)c1cnn(-c2ccc(F)cc2)c1N)C(F)(F)F)C(=O)c1c(Cl)cccc1Cl` (racemic) [Example 2 (racemic), 5-Amino-N-(2-{[[(2,6-dichlorophenyl)carbonyl](ethyl)amino]methyl}-3,3,3-trifluoro-2-hydroxypropyl)-1-(4-fluorophenyl)-1H-pyrazole-4-carboxamide], for which the IC50 is ≤ 316 nM.

For the molecule `Nc1c(C(=O)NCC(O)(CNC(=O)c2c(Cl)cccc2Cl)C(F)(F)F)cnn1-c1ccc(F)cc1` (racemic) [Example 3 (racemic), 5-Amino-N-[2-({[(2,6-dichlorophenyl)carbonyl]amino}methyl)-3,3,3-trifluoro-2-hydroxypropyl]-1-(4-fluorophenyl)-1H-pyrazole-4-carboxamide], the IC50 is ≤ 316 nM. With `CCN(CC(O)(CNC(=O)c1cnn(-c2ccc(F)cc2)c1N)C(F)(F)F)C(=O)c1c(F)cccc1Cl` (racemic) [Example 4 (racemic), 5-Amino-N-(2-{[[(2-chloro-6-fluorophenyl)carbonyl](ethyl)amino]methyl}-3,3,3-trifluoro-2-hydroxypropyl)-1-(4-fluorophenyl)-1H-pyrazole-4-carboxamide] the figure was ≤ 316 nM; with `CCN(CC(O)(CNC(=O)c1cnn(-c2ccc(F)cc2)c1N)C(F)(F)F)C(=O)c1c(F)cccc1F` (racemic) [Example 5 (racemic), 5-Amino-N-(2-{[[(2,6-difluorophenyl)carbonyl](ethyl)amino]methyl}-3,3,3-trifluoro-2-hydroxypropyl)-1-(4-fluorophenyl)-1H-pyrazole-4-carboxamide], ≤ 316 nM; with `Nc1c(C(=O)NCC(O)(CNC(=O)c2c(F)cccc2Cl)C(F)(F)F)cnn1-c1ccc(F)cc1` (racemic) [Example 7 (racemic), 5-Amino-N-[2-({[(2-chloro-6-fluorophenyl)carbonyl]amino}methyl)-3,3,3-trifluoro-2-hydroxypropyl]-1-(4-fluorophenyl)-1H-pyrazole-4-carboxamide], ≤ 316 nM. With `CN(CC(O)(CNC(=O)c1cnn(-c2ccc(F)cc2)c1N)C(F)(F)F)C(=O)c1c(F)cccc1F` (racemic) [Example 8 (racemic), 5-Amino-N-(2-{[[(2,6-difluorophenyl)carbonyl](methyl)amino]methyl}-3,3,3-trifluoro-2-hydroxypropyl)-1-(4-fluorophenyl)-1H-pyrazole-4-carboxamide] the figure was ≤ 316 nM; with `CN(CC(O)(CNC(=O)c1cnn(-c2ccc(F)cc2)c1N)C(F)(F)F)C(=O)c1c(F)cccc1Cl` (racemic) [Example 9 (racemic), 5-Amino-N-(2-{[[(2-chloro-6-fluorophenyl)carbonyl](methyl)amino]methyl}-3,3,3-trifluoro-2-hydroxypropyl)-1-(4-fluorophenyl)-1H-pyrazole-4-carboxamide], ≤ 316 nM; with `CCN(CC(O)(CNC(=O)c1cnn(-c2ccc(F)cc2)c1N)C(F)(F)F)C(=O)c1ccccc1S(C)(=O)=O` (racemic) [Example 10 (racemic), 5-Amino-N-{2-[(ethyl{[2-(methylsulfonyl)phenyl]carbonyl}amino)methyl]-3,3,3-trifluoro-2-hydroxypropyl}-1-(4-fluorophenyl)-1H-pyrazole-4-carboxamide], ≤ 316 nM. With `Nc1c(C(=O)NCC(O)(CNC(=O)c2c(Br)cccc2Br)C(F)(F)F)cnn1-c1ccc(F)cc1` (racemic) [Example 11 (racemic), 5-Amino-N-[2-({[(2,6-dibromophenyl)carbonyl]amino}methyl)-3,3,3-trifluoro-2-hydroxypropyl]-1-(4-fluorophenyl)-1H-pyrazole-4-carboxamide] the figure was ≤ 316 nM; with `Nc1c(C(=O)NCC(O)(CNC(=O)c2c(Cl)cccc2Br)C(F)(F)F)cnn1-c1ccc(F)cc1` (racemic) [Example 12 (racemic), 5-Amino-N-[2-({[(2-bromo-6-chlorophenyl)carbonyl]amino}methyl)-3,3,3-trifluoro-2-hydroxypropyl]-1-(4-fluorophenyl)-1H-pyrazole-4-carboxamide], ≤ 316 nM; with `Nc1c(C(=O)NCC(O)(CNC(=O)c2c(F)cccc2Br)C(F)(F)F)cnn1-c1ccc(F)cc1` (racemic) [Example 13 (racemic), 5-Amino-N-[2-({[(2-bromo-6-fluorophenyl)carbonyl]amino}methyl)-3,3,3-trifluoro-2-hydroxypropyl]-1-(4-fluorophenyl)-1H-pyrazole-4-carboxamide], ≤ 316 nM. Turning to `Nc1c(C(=O)NCC(O)(CNC(=O)c2c(Cl)cccc2OC(F)F)C(F)(F)F)cnn1-c1ccc(F)cc1` (racemic) [Example 14 (racemic), 5-Amino-N-(2-{[({2-chloro-6-[(difluoromethyl)oxy]phenyl}carbonyl)amino]methyl}-3,3,3-trifluoro-2-hydroxypropyl)-1-(4-fluorophenyl)-1H-pyrazole-4-carboxamide], the IC50 is ≤ 316 nM. In the case of `Nc1c(C(=O)NCC(O)(CNC(=O)c2c(C(F)(F)F)cccc2C(F)(F)F)C(F)(F)F)cnn1-c1ccc(F)cc1` (racemic) [Example 15 (racemic), 5-amino-N-{2-[({[2,6-bis(trifluoromethyl)phenyl]carbonyl}amino)methyl]-3,3,3-trifluoro-2-hydroxypropyl}-1-(4-fluorophenyl)-1H-pyrazole-4-carboxamide] it was ≤ 316 nM. In the case of `CN(CC(O)(CNC(=O)c1cnn(-c2ccc(F)cc2)c1N)C(F)(F)F)C(=O)c1c(Cl)cccc1Br` (racemic) [Example 16 (racemic), 5-amino-N-(2-{[[(2-bromo-6-chlorophenyl)carbonyl](methyl)amino]methyl}-3,3,3-trifluoro-2-hydroxypropyl)-1-(4-fluorophenyl)-1H-pyrazole-4-carboxamide] it was ≤ 316 nM; in that of `Nc1c(C(=O)NCC(O)(CN(CCF)C(=O)c2c(F)cccc2F)C(F)(F)F)cnn1-c1ccc(F)cc1` (racemic) [Example 17 (racemic), 5-amino-N-(2-{[[(2,6-difluorophenyl)carbonyl](2-fluoroethyl)amino]methyl}-3,3,3-trifluoro-2-hydroxypropyl)-1-(4-fluorophenyl)-1H-pyrazole-4-carboxamide], ≤ 316 nM; in that of `Nc1c(C(=O)NCC(O)(CN(CCF)C(=O)c2c(F)cccc2C(F)(F)F)C(F)(F)F)cnn1-c1ccc(F)cc1` (racemic) [Example 18 (racemic), 5-amino-1-(4-fluorophenyl)-N-{3,3,3-trifluoro-2-[((2-fluoroethyl){[2-fluoro-6-(trifluoromethyl)phenyl]carbonyl}amino)methyl]-2-hydroxypropyl}-1H-pyrazole-4-carboxamide], ≤ 316 nM. As to `Nc1c(C(=O)NCC(O)(CNC(=O)c2c(F)cccc2C(F)(F)F)C(F)(F)F)cnn1-c1ccc(F)cc1` (racemic) [Example 19 (racemic), 5-amino-1-(4-fluorophenyl)-N-{3,3,3-trifluoro-2-[({[2-fluoro-6-(trifluoromethyl)phenyl]carbonyl}amino)methyl]-2-hydroxypropyl}-1H-pyrazole-4-carboxamide], the IC50 is ≤ 316 nM.

In the case of `CN(CC(O)(CNC(=O)c1cnn(-c2ccc(F)cc2)c1N)C(F)(F)F)C(=O)c1c(F)cccc1C(F)(F)F` (racemic) [Example 21 (racemic), 5-amino-1-(4-fluorophenyl)-N-(3,3,3-trifluoro-2-{[{[2-fluoro-6-(trifluoromethyl)phenyl]carbonyl}(methyl)amino]methyl}-2-hydroxypropyl)-1H-pyrazole-4-carboxamide], the IC50 was ≤ 316 nM. With `CN(CC(O)(CNC(=O)c1cnn(-c2ccc(F)cc2)c1N)C(F)(F)F)C(=O)c1c(C(F)(F)F)cccc1C(F)(F)F` (racemic) [Example 22 (racemic), 5-amino-N-(2-{[{[2,6-bis(trifluoromethyl)phenyl]carbonyl}(methyl)amino]methyl}-3,3,3-trifluoro-2-hydroxypropyl)-1-(4-fluorophenyl)-1H-pyrazole-4-carboxamide] the figure was ≤ 316 nM; with `CCN(CC(O)(CNC(=O)c1cnn(-c2ccc(F)cc2)c1N)C(F)(F)F)C(=O)c1c(F)cccc1C(F)(F)F` (racemic) [Example 23 (racemic), 5-amino-N-{2-[(ethyl{[2-fluoro-6-(trifluoromethyl)phenyl]carbonyl}amino)methyl]-3,3,3-trifluoro-2-hydroxypropyl}-1-(4-fluorophenyl)-1H-pyrazole-4-carboxamide], ≤ 316 nM.
